Here are results for 2 compounds from patent US20170088623A1, “Prophylaxis Against Cancer Metastasis” (Ingeneron, Inc., priority 2015, published 2017).

The test system of assay [1] is CXCR4 receptor. To be noted: animal and human studies; cited from earlier work.
Assay [2] deals with LCN2 expression in SKBr3 cells. The assay can be described thus: LCN2 levels in HER2+ SKBr3 cells by Western blotting. The format is cell-based, human. To be noted: SKBr3 cells incubated with inhibitor. From the text: FIGS. 3A-D depict experiments showing that LCN2 (NGAL) is a down-stream target of the HER2/PI-3K/AKT/NF-κB pathway.
In addition, overexpression of dominant negative AKT led to reduced expression of LCN2, while overexpression of dominant active AKT increased LCN2 levels ([…]). […] Iannetti A, et al. “The neutrophil gelatinase-associated lipocalin (NGAL), a NF-kappaB-regulated gene, is a survival factor for thyroid neoplastic cells” Proc Natl Acad Sci USA 105(37) (2008) 14058.
On the technique in general: In western blotting, separated proteins are transferred to a membrane and probed.

Molecules are shown by their SMILES.

As for `c1cc(CN2CCCNCCNCCCNCC2)ccc1CN1CCCNCCNCCCNCC1` [AMD3100], in assay [1], the “hematopoietic stem cell mobilization” value was “able to induce hematopoietic stem cell mobilization”. Regarding `Cc1ccc(S(=O)(=O)/C=C/C#N)cc1` [Bay11-7082], in assay [2], the LCN2 expression entry was “reduced in a dose-dependent manner”.
